The values below come from patent US12024506B2, “Compounds” (Oxford University Innovation Limited, priority 2018, dated 2024).

Assay [1] addresses T1, NRASQ61H interaction with PI3K, CRAF, RALGDS (Homo sapiens, UniProt P01111, Q61H).
T1 construct: expressed in transfected cells; host or cells: HEK293T
Description: BRET2 cell assay, NRAS Q61H-effector interaction. The settings on record: HEK293T cells, 5, 10 and 20 μM, 20 h. The class given is cell-based. From the text: (§1) The BRET ratio corresponds to the light emitted by the GFP2 acceptor constructs (515 nm±30) upon addition of Coelenterazine 400a divided by the light emitted by the RLuc8 donor constructs (410 nm±80). The normalized BRET ratio is the BRET ratio normalized to the DMSO negative and calculated as follows: (BRETcompound/BRETDMSO)×100, where BRETcompound corresponds to the BRET ratio for the compound-treated cells, BRETDMSO to the DMSO-treated cells. Each experiment was repeated at least three times. Statistical analyses were performed using a one-way ANOVA followed by Dunnett's post-tests (*P<0.05, **P<0.01, ***P<0.001, ****P<0.0001). Where error bars are presented, they correspond to mean values±SD of biological repeats (a-c).
HEK293T cells were transfected 24 hr with plasmids expressing the NRAS Q61H […] and HRAS G12V (B, D) biosensors together with the indicated RBDs of PI3K, CRAF and RALGDS (A, B) or full-length CRAF. […]
(§2) 650,000 HEK293T were seeded in each well of a 6 well plate. […] The final concentrations in the cells were 0, 5, 10 and 20 µM (therefore the intermediate 10× concentrations were 0, 50, 100 and 200 μM. 10 μL of 10× compounds were added in each well of the 96 well plate to 0, 5, 10 and 20 µM final concentrations (with final 0.2% DMSO each). Quadruplicates were performed for each point. Cells were left for an additional 20 hours at 37° C. before the BRET2 signal reading directly after addition of Coelenterazine 400a substrate (10 µM final) to cells (Cayman Chemicals, cat #16157). BRET2 reading was carried out on an Envision instrument (2103 Multilabel Reader, PerkinElmer) with the BRET2 Dual Emission optical module (515 nm±30 and 410 nm±80; PerkinElmer).
(§3) The ability of Example compound 56 to inhibit RAS-effector PPI using the above cell-based RAS-effector BRET2 assay was investigated. […] We determined the effect of compound 56 (labelled Abd-7) on the interaction of KRAS^G12D and with PI3Kα and PI3Kγ, CRAF RAS-binding domain (RBD) and RALGDS RAS-associating domain (RA) compared with the low affinity Reference Compound Abd-2 FIG. 1a). […]
(In general: BRET reads energy transfer from a luciferase to a nearby fluorophore.)

The target in assay [2] is T2, KRASG12D interaction with PI3Kα, PI3Kγ, CRAF RBD, RALGDS RA (Homo sapiens, UniProt P01116, G12D).
T2 construct: expressed in transfected cells; host or cells: HEK293T
Description: BRET2 cell assay, KRAS G12D-effector interaction. The class given is cell-based. Particulars: HEK293T cells, 5, 10 and 20 μM, 20 h.
Excerpt: as §1
as §2, with “plate. 24 hours later, cells were transfected with an appropriated BRET-based RAS biosensor (i.e. RAS-effector) using Lipofectamine 2000 transfection reagent (Thermo-Fisher).” for “plate.”
as §3

Entries after “also recorded” stand apart in the source; their conditions may differ.

In the case of `COc1nc(-c2cccc3c2OCCO3)ccc1Nc1ccc(CN(C)C)cc1` [compound 56, [6-(2,3-Dihydro-benzo[1,4]dioxin-5-yl)-2-methoxy-pyridin-3-yl]-(4-dimethylaminomethyl-phenyl)-amine], the “Effect on BRET signal, NRAS Q61H/effector interactions” value in assay [1] is reported as “interferes with all mutant RAS family member PPIs”. In addition, the “Effect on BRET signal, KRAS G12D/effector interactions” value in assay [2] was “reduces the BRET signal”.

On to `COc1cc(-c2cccc3c2OCCO3)ccc1Nc1cccc(CN(C)C)c1.O=CO` [compound 72, [4-(2,3-Dihydro-benzo[1,4]dioxin-5-yl)-2-methoxy-phenyl]-(3-dimethylaminomethyl-phenyl)-amine formate salt], for which the “Effect on BRET signal, NRAS Q61H/effector interactions” value in assay [1] (formate salt) is reported as “inhibits; also recorded: disturbs the BRET2 signal in dose response manner”. Moreover, the “Effect on BRET signal, KRAS G12D/effector interactions” value in assay [2] (formate salt) was “decreases KRAS G12D/effector domain interactions in a dose-dependent manner; also recorded: dose response reduction in BRET signal”.
